# Patent publication US5449612A, “Process for identifying candida by means of chromogenic substances” (Serbio, priority 1990, dated 1995)
# Residues, ends and D or L forms follow the SMILES beside them. *: point of attachment. pNA = O=[N+]([O-])c1ccc(N*)cc1; Cbz = O=C(OCc1ccccc1)*
# What was measured:
# Candida albicans = experiment: Tests on substrates against Candida albicans, colour reading on buffered gelose; assay type: cell-based; conditions: Table I; for Reading at 24 h: medium pH 6.0, YNB, glucose, agar, gentamycin, coloration or fluorescence
# Candida tropicalis = experiment: Tests on substrates against Candida tropicalis, colour reading on buffered gelose; assay type: cell-based; design: C. TROPICALIS reading at 48 h: key to the marks not given beside the values; conditions: for Reading at 24 h: Table II, medium pH 6.0, YNB, glucose, agar, gentamycin; for C. TROPICALIS reading at 24 h: Table III, medium pH 6.0
# Candida krusei = experiment: Tests on substrates against Candida krusei, colour reading on buffered gelose; for Reading at 24 h: key: -: none; +: weak; ++: moderate; +++: intense; ++++: very intense; assay type: cell-based; design: key to Specificity: interference with C. krusei: (a): interference with C. albicans (++++); (b): interference with C. krusei (++); (c): interference with C. tropicalis (++); conditions: for Reading at 24 h: Table IV, medium pH 6.0
# T. glabrata [1] = experiment: Tests on substrates against T. glabrata, colour reading on buffered gelose; for T. GLABRATA reading at 24 h: key: -: none; +: weak; ++: moderate; +++: intense; ++++: very intense; assay type: cell-based, Torulopsis glabrata; design: T. GLABRATA reading at 48 h: key: -: none; +: weak; ++: moderate; +++: intense; ++++: very intense; conditions: for T. GLABRATA reading at 24 h: Table III, medium pH 6.0
# T. glabrata [2] = experiment: Diagnosis from isolated colonies on gelose 2/5; assay type: cell-based, Torulopsis glabrata; conditions: Table VII; isolated colonies, 9 strains; gelose 2; note: key: -: none; +: weak; ++: moderate; +++: intense; ++++: very intense
# C. tropicalis = experiment: Diagnosis from isolated colonies on gelose 2/5; assay type: cell-based, Candida tropicalis; conditions: gelose 2
# C. albicans = experiment: Diagnosis from isolated colonies on gelose 2/5; assay type: cell-based, Candida albicans; conditions: Table VII; isolated colonies, 6 strains; gelose 2; note: key: -: none; +: weak; ++: moderate; +++: intense; ++++: very intense
# C. krusei = experiment: Diagnosis from isolated colonies on gelose 2/5; assay type: cell-based, Candida krusei; conditions: Table VII; isolated colonies, 6 strains; gelose 2
# Protocol: According to the afore-mentioned best mode of carrying out the invention, a culture medium containing the following ingredients is prepared; it is called gelose 2 below and is buffered to pH 6.0.
# According to the afore-mentioned best mode of carrying out the invention, a culture medium containing the following ingredients is prepared; it is called gelose 5 below and is buffered to pH 6.0.
# Several isolated strains of C. albicans, C. tropicalis, C. krusei, C. guillermondii, C. pseudotropicalis, C. parapsilosis, C. zeylanoides, T. glabrata and Trichosporon cutaneum were inoculated and incubated on the media of Examples 1 to 5. […] Part of the results obtained has been collated in Table VI below, where the TTC column relates to results of tests undertaken separately on a standard gelose medium containing TTC.
# Several isolated strains of C. albicans, C. tropicalis, C. krusei, C. guillermondii and T. glabrata were inoculated and incubated on the media of Example 2 [containing either the substrate N-Ac-β-D-galactosaminide-PNP of the prior art, or the substrates H-L-PropNA.AcOH (specific for C. albicans), EM-L-Phg-L-ArgpNA.AcOH (specific for T. glabrata) and H-Gly-L-Pro-L-Arg-pNA.2AcOH (specific for C. krusei)]and of Example 5 (containing the substrate H-L-Pro-pNA.AcOH).
# Candida guillermondii = experiment: Tests on substrates against Candida guillermondii; design: Reading at 24 h: key to the marks not given beside the values
compound,measurement,setting,value
"CC(=O)O.O=C(Nc1ccc2cc(Br)ccc2c1)[C@@H]1CCCN1 [H-L-Pro-(6-Br)NA.AcOH, reference compound]",Specificity: nonspecific for the strains of Candida albicans,Candida albicans,(a)
same,Reading at 24 h,Candida albicans,+
N=C(N)NCCC[C@H](NC(=O)[C@@H]1CCCN1)C(=O)Nc1ccc([N+](=O)[O-])cc1 [H-L-Pro-L-Arg-pNA.2AcOH] (H-Pro-Arg-pNA),Reading at 24 h,Candida tropicalis,++
N=C(N)NCCC[C@H](NC(=O)[C@@H]1CCCN1C(=O)[C@@H]1CCCN1)C(=O)Nc1ccc([N+](=O)[O-])cc1 [H-L-Pro-L-Pro-L-Arg-pNA.2AcOH] (H-Pro-Pro-Arg-pNA),Reading at 24 h,Candida krusei,-
same,Specificity: interference with C. tropicalis,Candida tropicalis; Table I,(b)
same,Reading at 24 h,Candida tropicalis,++++
same,Specificity: interference with C. tropicalis,Candida tropicalis; Table IV,(a)
same,Reading at 24 h,Candida albicans,+++
"CC(=O)O.O=C(Nc1ccc2ccccc2c1)[C@@H]1CCCN1 [H-L-Pro-NA.AcOH, reference compound]",Specificity: nonspecific for the strains of Candida albicans,Candida albicans,(a)
same,Reading at 24 h,Candida albicans,++
CC(=O)O.COCCOCCOC(=O)NC(CCCN=C(N)N)C(=O)Nc1ccc([N+](=O)[O-])cc1 [MeO(CH2 CH2 O)2 CO-L-Arg-pNA.AcOH],Reading at 24 h,Candida albicans,-
O=C(NCC(=O)N1CCC[C@H]1C(=O)Nc1ccc([N+](=O)[O-])cc1)OCc1ccccc1 [Z-Gly-L-Pro-pNA] (Cbz-Gly-Pro-pNA),Reading at 24 h,Candida albicans,-
CC(=O)O.NCCCC[C@H](NC(=O)OCc1ccccc1)C(=O)Nc1ccc([N+](=O)[O-])cc1 [Z-L-Lys-pNA.AcOH],Reading at 24 h,Candida albicans,-
Boc-L-Hyp-L-Pro-L-Arg-pNA.AcOH,T. GLABRATA reading at 24 h,T. glabrata [1],-
same,C. TROPICALIS reading at 24 h,Candida tropicalis,+
BzNH-D-Ala-Gly-L-Arg-pNA.AcOH,T. GLABRATA reading at 24 h,T. glabrata [1],-
same,C. TROPICALIS reading at 24 h,Candida tropicalis,++
BzNH-L-Ala-Gly-L-Arg-pNA.AcOH,T. GLABRATA reading at 24 h,T. glabrata [1],-
same,C. TROPICALIS reading at 24 h,Candida tropicalis,+++
EM-L-Hyp-L-Arg-pNA.AcOH,T. GLABRATA reading at 48 h,T. glabrata [1]; Table III footnotes,+++
same,T. GLABRATA reading at 24 h,T. glabrata [1],-
same,C. TROPICALIS reading at 48 h,Candida tropicalis; Table III footnotes,+++
same,C. TROPICALIS reading at 24 h,Candida tropicalis,++
EM-L-Phg-L-Arg-pNA.AcOH,Reading at t = 24 h,T. glabrata [2],+++
same,T. GLABRATA reading at 24 h,T. glabrata [1],++++
same,C. TROPICALIS reading at 24 h,Candida tropicalis,+++
same,hydrolysis by the strains of C. tropicalis,"C. tropicalis; Example 7, isolated strains",hydrolyzed
same,Reading at t = 24 h,"C. tropicalis; Table VII, isolated colonies, 9 strains",++
same,Reading at t = 24 h,C. albicans,-
same,Reading at t = 24 h,C. krusei,-
H-D-Pro-L-Hyp-L-Arg-pNA.2AcOH,Reading at 24 h,Candida tropicalis,+++
H-L-Hyp-L-Arg-pNA.2AcOH,Reading at 24 h,Candida tropicalis,++
H-L-Hyp-L-Hyp-L-Arg-pNA.2AcOH,Reading at 24 h,Candida tropicalis,+++
H-L-Hyp-L-Lys-pNA.2AcOH,Reading at 24 h,Candida tropicalis,++
H-L-Hyp-L-Pro-L-Arg-pNA.2AcOH,Reading at 24 h,Candida tropicalis,+++
H-L-ONC-L-Arg-pNA.AcOH,Specificity: interference with C. guillermondii,Candida guillermondii; Table IV,(e)
same,Reading at 24 h,Candida guillermondii; Table V,++++
same,Reading at 24 h,Candida krusei,++
same,Specificity: interference with C. krusei,Candida krusei; Table V,(b)
H-L-ONC-L-Pro-L-Arg-pNA.AcOH,Reading at 24 h,Candida tropicalis,+++
MM-L-Phg-L-Arg-pNA.AcOH,T. GLABRATA reading at 24 h,T. glabrata [1],+ +++
same,C. TROPICALIS reading at 24 h,Candida tropicalis,++
Z-L-Ala-L-Pro-pNA,Reading at 24 h,Candida albicans,-
